In US20260015358A1, “BICYCLIC DERIVATIVES, COMPOSITIONS AND USES THEREOF” (Danatlas Pharmaceuticals Co., Ltd., priority 2023, published 2026):
pIC50: −log10 of the molar value.

How the values were obtained:
[1] = target: T1, WRN [UniPro: Q14191 (WRN_HUMAN), N500-C946] (Homo sapiens (Human), UniProt Q14191); assay: WRN unwinding assay (FORKF DNA, fluorescence); type: biochemical; conditions: Table 14
[2] = target: T1, WRN [UniPro: Q14191 (WRN_HUMAN), N500-C946]; assay: WRN ATPase assay (ADP-Glo); type: biochemical; conditions: WRN enzymatic activity assay

T1 sequence (Q14191 500-946): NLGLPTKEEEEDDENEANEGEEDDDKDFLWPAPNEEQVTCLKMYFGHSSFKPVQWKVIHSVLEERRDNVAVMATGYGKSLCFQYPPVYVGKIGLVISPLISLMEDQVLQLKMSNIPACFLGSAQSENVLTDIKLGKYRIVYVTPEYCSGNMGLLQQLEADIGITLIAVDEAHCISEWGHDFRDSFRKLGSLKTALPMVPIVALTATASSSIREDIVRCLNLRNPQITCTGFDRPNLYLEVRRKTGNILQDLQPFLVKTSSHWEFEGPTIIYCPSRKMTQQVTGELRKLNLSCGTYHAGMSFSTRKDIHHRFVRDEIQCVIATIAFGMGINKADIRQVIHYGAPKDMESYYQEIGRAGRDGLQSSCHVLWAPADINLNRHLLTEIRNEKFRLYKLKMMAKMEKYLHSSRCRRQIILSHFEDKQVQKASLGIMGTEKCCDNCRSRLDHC

pIC50 [1]	pIC50 [2]	SMILES
> 7.00	> 7.00	CCc1c(N2CCN(C(=O)c3ccn4nc(C)cc4c3O)CC2)c(=O)n2nc(C3=CCOCC3)nc2n1CC(=O)Nc1ccc(C(F)(F)F)cc1Cl [Example 72, N-(2-Chloro-4-(trifluoromethyl)phenyl)-2-(2-(3,6-dihydro-2H-pyran-4-yl)-5-ethyl-6-(4-(4-hydroxy-2-methylpyrazolo[1,5-a]pyridine-5-carbonyl)piperazin-1-yl)-7-oxo-[1,2,4]triazolo[1,5-a]pyrimidin-4(7H)-yl)acetamide]
> 7.00	> 7.00	CCc1c(N2CCN(C(=O)c3n[nH]c(=O)n(C)c3=O)CC2)c(=O)n2nc(C3=CCOCC3)nc2n1CC(=O)Nc1ccc(Cl)cc1C(F)(F)F [Example 73, N-(4-Chloro-2-(trifluoromethyl)phenyl)-2-(2-(3,6-dihydro-2H-pyran-4-yl)-5-ethyl-6-(4-(4-methyl-3,5-dioxo-2,3,4,5-tetrahydro-1,2,4-triazine-6-carbonyl)piperazin-1-yl)-7-oxo-[1,2,4]triazolo[1,5-a]pyrimidin-4(7H)-yl)acetamide]
> 7.00	> 7.00	CCc1c(N2CCN(C(=O)c3sc4cnccc4c3O)CC2)c(=O)n2nc(C3=CCOCC3)nc2n1CC(=O)Nc1ccc(C(F)(F)F)cc1Cl [Example 74, N-(2-Chloro-4-(trifluoromethyl)phenyl)-2-(2-(3,6-dihydro-2H-pyran-4-yl)-5-ethyl-6-(4-(3-hydroxythieno[2,3-c]pyridine-2-carbonyl)piperazin-1-y1)-7-oxo-[1,2,4]triazolo[1,5-a]pyrimidin-4(7H)-yl)acetamide]
> 7.00	6.00 to 7.00	CCc1c(N2CCN(C(=O)c3nc4cnccn4c3O)CC2)c(=O)n2nc(C3=CCOCC3)nc2n1CC(=O)Nc1ccc(C(F)(F)F)cc1Cl [Example 75, N-(2-Chloro-4-(trifluoromethyl)phenyl)-2-(2-(3,6-dihydro-2H-pyran-4-yl)-5-ethyl-6-(4-(3-hydroxyimidazo[1,2-a]pyrazine-2-carbonyl)piperazin-1-yl)-7-oxo-[1,2,4]triazolo[1,5-a]pyrimidin-4(7H)-yl)acetamide]
> 7.00	6.00 to 7.00	CCc1c(N2CCN(C(=O)c3n[nH]cc(C)c3=O)CC2)c(=O)n2nc(C3=CCOCC3)nc2n1CC(=O)Nc1ccc(C(F)(F)F)cc1Cl [Example 76, N-(2-Chloro-4-(trifluoromethyl)phenyl)-2-(2-(3,6-dihydro-2H-pyran-4-yl)-5-ethyl-6-(4-(5-methyl-4-oxo-1,4-dihydropyridazine-3-carbonyl)piperazin-1-yl)-7-oxo-[1,2,4]triazolo[1,5-a]pyrimidin-4(7H)-yl)acetamide]
> 7.00	> 7.00	CCc1c(N2CCN(C(=O)c3cnc4c(ccn4C)c3O)CC2)c(=O)n2nc(C3=CCOCC3)nc2n1CC(=O)Nc1ccc(C(F)(F)F)cc1Cl [Example 77, N-(2-Chloro-4-(trifluoromethyl)phenyl)-2-(2-(3,6-dihydro-2H-pyran-4-yl)-5-ethyl-6-(4-(4-hydroxy-1-methyl-1H-pyrrolo[2,3-b]pyridine-5-carbonyl)piperazin-1-yl)-7-oxo-[1,2,4]triazolo[1,5-a]pyrimidin-4(7H)-yl)acetamide]
> 7.00	> 7.00	CCc1c(N2CCN(C(=O)c3cccc(=O)[nH]3)CC2)c(=O)n2nc(C3=CCOCC3)nc2n1CC(=O)Nc1ccc(C(F)(F)F)cc1Cl [Example 78, N-(2-Chloro-4-(trifluoromethyl)phenyl)-2-(2-(3,6-dihydro-2H-pyran-4-yl)-5-ethyl-7-oxo-6-(4-(6-oxo-1,6-dihydropyridine-2-carbonyl)piperazin-1-yl)-[1,2,4]triazolo[1,5-a]pyrimidin-4(7H)-yl)acetamide]
> 7.00	6.00 to 7.00	CCc1c(N2CCN(C(=O)c3ccnc(=O)[nH]3)CC2)c(=O)n2nc(C3=CCOCC3)nc2n1CC(=O)Nc1ccc(C(F)(F)F)cc1Cl [Example 79, N-(2-Chloro-4-(trifluoromethyl)phenyl)-2-(2-(3,6-dihydro-2H-pyran-4-yl)-5-ethyl-7-oxo-6-(4-(2-oxo-2,3-dihydropyrimidine-4-carbonyl)piperazin-1-yl)-[1,2,4]triazolo[1,5-a]pyrimidin-4(7H)-yl)acetamide]
> 7.00	6.00 to 7.00	CCc1c(N2CCN(C(=O)c3cc4ccn(C)c4cc3O)CC2)c(=O)n2nc(C3=CCOCC3)nc2n1CC(=O)Nc1ccc(C(F)(F)F)cc1Cl [Example 80, N-(2-Chloro-4-(trifluoromethyl)phenyl)-2-(2-(3,6-dihydro-2H-pyran-4-yl)-5-ethyl-6-(4-(6-hydroxy-1-methyl-1H-indole-5-carbonyl)piperazin-1-yl)-7-oxo-[1,2,4]triazolo[1,5-a]pyrimidin-4(7H)-yl)acetamide]
> 7.00	> 7.00	CCc1c(N2CCN(C(=O)c3cnc4ncsc4c3O)CC2)c(=O)n2nc(C3=CCOCC3)nc2n1CC(=O)Nc1ccc(C(F)(F)F)cc1Cl [Example 81, N-(2-Chloro-4-(trifluoromethyl)phenyl)-2-(2-(3,6-dihydro-2H-pyran-4-yl)-5-ethyl-6-(4-(7-hydroxythiazolo[4,5-b]pyridine-6-carbonyl)piperazin-1-yl)-7-oxo-[1,2,4]triazolo[1,5-a]pyrimidin-4(7H)-yl)acetamide]
> 7.00	> 7.00	CCc1c(N2CCN(C(=O)c3nnccc3O)CC2)c(=O)n2nc(C3=CCOCC3)nc2n1CC(=O)Nc1ccc(C(F)(F)F)cc1Cl [Example 82, N-(2-Chloro-4-(trifluoromethyl)phenyl)-2-(2-(3,6-dihydro-2H-pyran-4-yl)-5-ethyl-6-(4-(4-hydroxypyridazine-3-carbonyl)piperazin-1-yl)-7-oxo-[1,2,4]triazolo[1,5-a]pyrimidin-4(7H)-yl)acetamide]
> 7.00	> 7.00	CCc1c(N2CCN(C(=O)c3nnc(Cl)cc3O)CC2)c(=O)n2nc(C3=CCOCC3)nc2n1CC(=O)Nc1ccc(C(F)(F)F)cc1Cl [Example 83, N-(2-Chloro-4-(trifluoromethyl)phenyl)-2-(6-(4-(6-chloro-4-hydroxypyridazine-3-carbonyl)piperazin-1-yl)-2-(3,6-dihydro-2H-pyran-4-yl)-5-ethyl-7-oxo-[1,2,4]triazolo[1,5-a]pyrimidin-4(7H)-yl)acetamide]
> 7.00	> 7.00	CCc1c(N2CCN(C(=O)c3cnn4cccc4c3O)CC2)c(=O)n2nc(C3=CCOCC3)nc2n1CC(=O)Nc1ccc(C(F)(F)F)cc1Cl [Example 84, N-(2-Chloro-4-(trifluoromethyl)phenyl)-2-(2-(3,6-dihydro-2H-pyran-4-yl)-5-ethyl-6-(4-(4-hydroxypyrrolo[1,2-b]pyridazine-3-carbonyl)piperazin-1-yl)-7-oxo-[1,2,4]triazolo[1,5-a]pyrimidin-4(7H)-yl)acetamide]
> 7.00	> 7.00	CCc1c(N2CCN(C(=O)c3nn4ccnc4cc3O)CC2)c(=O)n2nc(C3=CCOCC3)nc2n1CC(=O)Nc1ccc(C(F)(F)F)cc1Cl [Example 85, N-(2-Chloro-4-(trifluoromethyl)phenyl)-2-(2-(3,6-dihydro-2H-pyran-4-yl)-5-ethyl-6-(4-(7-hydroxyimidazo[1,2-b]pyridazine-6-carbonyl)piperazin-1-yl)-7-oxo-[1,2,4]triazolo[1,5-a]pyrimidin-4(7H)-yl)acetamide]
